# From patent US5482975A, “Adenosine diphosphoribose polymerase binding nitroso aromatic compounds useful as retroviral inactivating agents, anti-retroviral agents and anti-tumor agents” (priority 1993, dated 1996)
# Entries after “also recorded” stand apart in the source; their conditions may differ.
# Tests used:
# [1] = test system: L1210 murine leukemia; test: L1210 murine leukemia in vivo; design: species or system BDF mice; settings: 2 mg/kg i.p. twice a day, 6 consecutive days
# [2] = test system: 855-2 cells; test: [3H] thymidine uptake / growth, 855-2 cells (FIG. 2A, E, F; FIG. 3); type: cell-based, human
# Protocol: FIGS. 2A-2F are a composite of graphs displaying the inhibitory effects of the ADRPT ligands on (FIG. 2A) 855-2 cells (a cell line of human B-cell lineage acute lymphoblastic leukemia), (FIG. 2B) H9 cells (a cell line of human T-cell lineage acute lymphoblastic leukemia), FIG. (2C) HL-60 cells (a cell line of human acute nonlymphoblastic leukemia) and (FIG. 2D) K562 cells (a cell line of human chronic myelogenous leukemia). These cells were cultured while under the influence of the growth factors in 10% fetal bovine serum (FCS), whereas in (FIG. 2E) and (FIG. 2F) the 855-2 cells were cultured in the presence of autocrine growth factor activity (AGF) or low molecular weight-B-cell growth factor (BCGF, a T-cell derived lymphokine), respectively.
# Experiments using HL-60 cells (FIG. 2C) provided similar conclusions.
# 855-2 cells that were grown in media with (1) 10% fetal bovine serum, (2) autocrine growth factor (AGF) and (3) low molecular weight-BCGF (a T cell derived lymphokine) were exposed to increasing concentrations of the ADRPT ligands.
# [3] = test system: anti-tumor and anti-HIV; test: biological action of nitroso compounds (anti-tumor and anti-HIV, summary); type: cell-based; settings: effective even after exposure of cells as short as 30 minutes
# [4] = test system: H9 cells; test: [3H] thymidine uptake, H9 cells (FIG. 2B); type: cell-based, human; settings: 250 μM; 10% FCS
# [5] = test system: various cancer cells (855-2, HL-60, D32, D37, CRL 7712, 186 medulla, L1210, MDA-468); test: functions of various cancer cells in presence of compounds (FIGS. 4-9); type: cell-based; settings: summary statement
# Protocol: (§1) Experiments were performed in which the functions of various cancer cells (855-2 and HL-60 leukemia cells, D32, D37 and CRL 7712 glioblastoma cell lines, 186 medulla tumor cell line, L1210 murine leukemia cell line, MDA-468 human breast tumor cell line) and normal cells (neutrophil leukocytes and bone marrow or peripheral blood stream cells) were assessed in the absence or presence of the compounds.
# [6] = target: T1, Zn(HIV1-F1) oligonucleotide complex (Human immunodeficiency virus type 1 lw12.3 isolate, UniProt Q70622); test: NMR study of Zn(HIV1-F1) nucleic acid binding; type: biochemical, HIV-1; settings: two equivalents NOBA
# T1 construct: NC cut from Gag polyprotein (Pr55Gag)
# Description: The downfield regions of the spectra show the signals of the aromatic and ribose H1' protons, and the upfield region contain signals of the methyl group protons. Dramatic spectral changes occur upon addition of oligonucleotide to Zn(HIV1-F1), including large upfield shifts of the Phe 2 and Ile 10 side chain=n signals and a downfield shifting and broadening of the guanosine-H8 proton signal (second from the top).
# The reaction mechanism, schematically illustrated in FIG. 12, is consistent with the result of NMR analysis in FIGS. 10 and 11. The reaction mechanism proposed in FIG. 12 is a useful model but is not intended to limit the scope of the claimed invention.
# [7] = test system: HL-60 cells; test: colony formation (CFU) of leukemic cells in semi-solid medium (FIG. 4); type: cell-based, human
# Protocol: as §1
# [8] = test system: 855-2 cells; test: cytocidal activity, MTT assay; type: cell-based, human; settings: 10 μM; 100,000 cells/ml
# Protocol: MTT (3-[4,5-[…]]-2,5-diphenyltetrazolium bromide) at 1 mg/ml was then added for 16 hours. The absorbance of the pelleted cell was then measured at 550 nm after adding DMSO to solubilze the cells.
# [9] = test system: Human Neutrophils; test: superoxide generation by human neutrophils; settings: 10 μM
# [10] = test system: normal rhesus bone marrow stem cells; test: CFU stem cell toxicity assay (FIG. 5A); settings: 10 μM
# [11] = test system: 855-2 cells; test: colony formation (CFU) of leukemic cells in semi-solid medium (FIG. 4); type: cell-based, human
# Protocol: as §1
structure (smiles),measurement,setting,value
"NC(=O)c1cccc(N=O)c1 [NOBA, 3-nitrosobenzamide]",in vivo chemotherapeutic response,[1],highly significant in vivo chemotherapeutic response
same,toxic effects in mice,[1],no toxic effects
same,growth arrest in increasing FCS,"[2]; 10 μM, increasing FCS concentrations",Growth arrest occurs irrespective of the concentration of FCS
same,inhibitory effects with different growth factors,"[2]; 10% fetal bovine serum, AGF or BCGF",potent inhibitory effects
same,anti-tumor and anti-HIV activity,[3],highly active
same,inhibition of thymidine uptake,[4],almost complete inhibition
same,effectiveness against tumor cells,[5],highly effective
same,effect on zinc finger nucleic acid complex,[6],ejection of zinc with concomitant dissociation of the zinc finger nucleic acid complex; also recorded: NOBA-induced zinc ejection leads to loss of high-affinity nucleic acid binding function
same,ability to form colonies (CFU),[7],inhibit the ability
same,cell killing,[8],complete killing
same,reduction in superoxide generation,[9],Only minor reductions
same,Generation of Superoxide by Human Neutrophils,"[9]; mean + S.D., n = 11, PMN + PMA",44.4 ± 10.0 nmol 02^- /hr/10^5 cells
same,CFU stem cell toxicity,[10],non-toxic
same,ability to form colonies (CFU),[11],inhibit the ability
